Results from patent EP4050002A1, “ANTI-PROLIFERATIVE AGENTS” (First Health Pharmaceuticals B.V., priority 2021, dated 2022).
Where two headings read alike, the source gives them in different places.

Assay: Tissue distribution in xenograft mice (conditions #1, #1A, #1B)
Format: in vivo, male FOXN1nu/nu nude mice
Conditions: for Kp at 4 h: mouse, brain, ip, read-out: Brain to plasma
Protocol: The pharmacokinetic study was performed in male Swiss albino mice from Hylasco Biotechnology Pvt. Ltd. (A Charles River technology Licensee). The tissue distribution study was performed in male Swiss albino mice and in male FOXN1^nu/nu nude mice (Envigo spa). The efficacy study was performed in male FOXN1^nu/nu nude mice.
At study closure, animals were sacrificed and tumor and tissues removed for further studies of distribution and morphology. Mice from the efficacy study were anesthetized using gaseous anesthesia and blood samples collected in Li-Heparin containing tubes by intracardiac puncture, stored on ice, centrifuged within 15 minutes to separate plasma at 1540 ref (5000 rpm), at 4°C for 10 minutes; plasma was separated and transferred to new tubes. After blood collection, tissues for bio-analyses were separated, washed in PBS, dried and frozen at -80±10°C until homogenization.
The levels of compound in the tissues were quantified by LC-MS/MS as follows.
UHPLC-MS/MS analysis was performed on a Q-Exactive Plus (ThermoFisher Scientific) mass spectrometer coupled with an UHPLC Ultimate 3000SD (ThermoFisher Scientific).
Chromatographic separation of the analytes was performed on an Acquity UPLC BEH Shield RP18 column ([…], 2.1 mm x 50 mm, […]) with a column temperature at 40°C.
The flow rate was 250 µl/min. The mobile phase was a gradient of a mixture of 10 mM ammonium acetate with 0.1% formic acid (phase A) and Acetonitrile:Methanol (50:50 v/v) as phase B. The gradient profile used began with an elution of (A:B) 70:30 v/v for 1 min, followed by a gradual decrease of A to (A:B) 5:95 v/v until 5 min, a constant gradient for 1 min of 95% of B, then a gradual decrease of B to the initial condition until 7 min and then a final conditioning of the column for about 4 min in order to equilibrate for the next injection.
The electrospray ionization source (ESI) was operated in positive mode. Parallel reaction monitoring (PRM) methods was applied to quantify compound 5. The selected transitions m/z 414.20-243.10 for compound 5 and m/z 360.18- 243.12 for the internal standard (compound 4) were considered. Each sample was assayed in duplicate.
Preparation of plasma samples: Mouse plasma (10 µl) was placed into a tube containing 188 µl of a chilled Acetonitrile:Methanol solution (50:50 v/v) in order to precipitate proteins. Each sample was spiked with a fixed concentration (200 nM) of compound 4 used as internal standard. After 1 min of vortex, the mixture was centrifuged at 10,000 x g for 15 minutes at 4 °C to separate the protein material from the supernatant. The last one of each sample was transferred to a new sample tube and the solvent was evaporated under nitrogen stream. The dried material was re-suspended in 100 µl of mobile phase. The resulting solution was then analyzed by UHPLC-MS/MS without further modifications.
Preparation of tissue samples was as follows: the tissues of interest were washed briefly with chilled water to remove traces of blood, if necessary, and cut into small pieces, keeping them on ice during all the operations. Then the samples were transferred to a tube and homogenized in purified water using the homogenizer TissueRuptor of Qiagen. In general, 300 µl of purified water was added to 50 mg of tissue. The homogenized samples were centrifuged at 10,000 x g for 15 minutes at 4°C to pellet cell debris, and then the supernatant were transferred to a clean tube in order to perform protein precipitation using a chilled solution of Acetonitrile:Methanol (50:50 v/v) and vortexed for 1 min. Before protein precipitation a fixed concentration (200 nM) of internal standard (Compound 4) was added in every sample. After centrifugation, the supernatant was separated from protein pellet and dried under nitrogen stream. 50 µl of mobile phase was used to re-suspend each dried sample. […]

[1] = #1: single I.P. administration, 45 mg/Kg, withdrawal 4 hours after administration
[2] = #1A: two I.P. administration, 45 mg/Kg, at distance of 48 hours, withdrawal 4 hours after last administration
[3] = #1B: 6 weeks of repeated I.P. administration, 45 mg/kg, every 48 hours, withdrawal 4 hours after last administration

Structure (SMILES): CCCCc1cn(-c2ccc(-c3nnc(-c4ccccc4C(F)(F)F)o3)cc2)nn1 [Compound 5]
- Adipose to plasma [1]: 14.3
- Breast to plasma [1]: 42.9
- Intestine to plasma [1]: 5.8
- Kidney to plasma [1]: 23.1
- Liver to plasma [1]: 7.3
- Lung to plasma [1]: 12.6
- Lymph node to plasma [1]: 17.9
- Plasma [1]: 2099.8 ng/mL
- Spleen to plasma [1]: 26.1
- Tumor to plasma [1]: 11.3
- Adipose to plasma [2]: 31.8
- Breast to plasma [2]: 10.9
- Intestine to plasma [2]: 4.2
- Kidney to plasma [2]: 21.6
- Liver to plasma [2]: 12.9
- Lung to plasma [2]: 10.3
- Lymph node to plasma [2]: 137.7
- Plasma [2]: 2188.6 ng/mL
- Spleen to plasma [2]: 23.3
- Tumor to plasma [2]: 39.9
- Adipose to plasma [3]: 233.3
- Breast to plasma [3]: 18.5
- Intestine to plasma [3]: 10.9
- Kidney to plasma [3]: 18.3
- Liver to plasma [3]: 12.4
- Lung to plasma [3]: 9.6
- Lymph node to plasma [3]: 27.5
- Plasma [3]: 4658.9 ng/mL
- Spleen to plasma [3]: 21.4
- Tumor to plasma [3]: 14.9
- Kp at 4 h (45 mg/kg, #1: single I.P. administration, 45 mg/Kg, withdrawal 4 hours after administration): 0.5
- Kp at 4 h (45 mg/kg, #1A: two I.P. administration, 45 mg/Kg, at distance of 48 hours, withdrawal 4 hours after last administration): 1.1
- Kp at 4 h (45 mg/kg, #1B: 6 weeks of repeated I.P. administration, 45 mg/kg, every 48 hours, withdrawal 4 hours after last administration): 0.7
